The values that follow come from PMC5655031, “A Linear 19-Mer Plant Defensin-Derived Peptide Acts Synergistically with Caspofungin against Candida albicans Biofilms” (Frontiers in Microbiology, 2017).

In series [1] the test system is Candida albicans biofilms. The series can be described thus: microbe, parasite or virus in culture.
Series [2] concerns C. albicans SC5314 WT planktonic cells. The series can be described thus: Fungicidal activity assay (plating, CFU) on planktonic cells. Conditions: caspofungin alone, concentrations up to 50 μM, one representative experiment out of 2. In kind it is cell-based, Candida albicans. The procedure: […] Both at the start and at all measuring points, surviving yeast cells was determined via plating assays. In a plating assay, 10-fold dilution series of yeast cells in PBS were prepared, after which 100 μL was plated on YPD plates. After 1 day of incubation at 37°C, the number of colony forming units (CFU) was counted and cell death was calculated relative to time zero (t0). MFC50 values, indicating the minimum fungicidal concentration resulting in 50% cell death, were determined. In parallel with the plating assay, confocal microscopic or flow cytometric analysis were performed on the samples.

Series [3] has as its system C. albicans caspofungin-resistant mutant M177 (fks1 mutant) biofilms. The series can be described thus: microbe, parasite or virus in culture. Conditions: Candida albicans, read-out: BIC50 (CASPO) ± SEM.
Series [4] deals with Candida glabrata biofilms. Put plainly: In vitro biofilm inhibition assay in microtiter plates (XTT quantification). Format: cell-based. The note with it: Nakaseomyces glabratus, caspofungin alone, n = 3, read-out: BIC50 (CASPO) ± SEM. In general terms: Tetrazolium assays rely on reduction of a dye to a coloured formazan, in cell work by metabolically active cells.
Series [5] has as its system planktonic Candida albicans fks1 mutant cells. Put plainly: Flow cytometry: HsLin06_18-FITC uptake and membrane permeabilization (PI), fks1 mutant. In kind it is cell-based. The note with it: caspofungin (0.5 μM) alone; 40 minutes; n = 3. The procedure: (§1) Membrane permeabilization and HsLin06_18 internalization were determined via flow cytometric analysis on planktonic C. albicans SC5314 WT cells. Exponentially growing cells were exposed to caspofungin ([…]), HsLin06_18-FITC (4.6 μM) or its combination (as described in the material and methods section “fungicidal activity assay”), and to propidium iodide (PI) (2 μg/mL), after which they were subjected to flow cytometry on a BD Influx™ cell sorter. Per treatment, 10,000 cells were monitored for fluorescence at 530/40 nm (FL2_λex = 488 nm) and 610/20 nm (FL11_ λex = 561 nm) for the detection of HsLin06_18-FITC internalization (FITC+) and membrane permeabilization (PI+), respectively. Data from cells treated with 4.6 μM HsLin06_18-FITC were used as background signal.
[picture] Supplementary Figure S3: HsLin06_18-FITC uptake and membrane permeabilization in planktonic Candida albicans WT and fks1 mutant cells, determined via flow cytometry. Cells were treated for 40 minutes with 0.5 µM caspofungin and/or […] HsLin06_18-FITC (HsL-F) and 2 µg/mL propidium iodide (PI). […]

Series [6] relates to Candida albicans biofilms. Put plainly: In vitro biofilm inhibition assay in microtiter plates (XTT quantification). In kind it is cell-based. Conditions: caspofungin alone, n = 3, read-out: BIC50 (CASPO) ± SEM.
A further series relates to Candida krusei biofilms. Described as above. Conditions: Pichia kudriavzevii, caspofungin alone, n = 3, read-out: BIC50 (CASPO) ± SEM. In kind it is cell-based.
For series [7], the system named is planktonic C. albicans SC5314 WT cells. The series can be described thus: Flow cytometry: HsLin06_18-FITC uptake and membrane permeabilization (PI). Format: cell-based, Candida albicans. The note with it: 0.01 μM caspofungin alone; vs t0. As to the method: as §1
A general note: Flow cytometry measures light scatter and fluorescence of single cells or particles in a stream.

For series [8], the system named is C. albicans biofilms on serum pre-incubated polyurethane catheters. The series can be described thus: In vitro biofilm inhibition assay on catheters. In kind it is cell-based, Candida albicans. The note with it: 24 h treatment; CFU. The procedure: Polyurethane catheters, overnight incubated in bovine serum, were infected with C. albicans or C. glabrata cells (5 × 10^4 cells/mL) in RPMI medium (Kucharikova et al., [2015]). […] All experiments were performed in quadruplicate with at least three biological repeats.

In series [9] the test system is C. albicans biofilms on catheter pieces. Put plainly: In vivo biofilm inhibition assay, subcutaneous rat catheter model. Conditions: intravenously (IV) administered, once daily for 7 days; CFU.
Description: All animal experiments were in accordance with the KU Leuven animal care guidelines and approved by the Ethical Committee of the KU Leuven (P069/2016). In vivo C. albicans biofilms were formed inside catheter pieces in immunosuppressed female Sprague–Dawley rats (200 g) as described previously (Ricicova et al., [2010]). Briefly, serum pre-incubated catheters were infected with C. albicans cells (5 × 10^4 cells/mL) prepared in RPMI medium during the adhesion period (90 min at 37°C). After a washing step, 9 catheter pieces were implanted into the back area of one rat. Inhibition of in vivo C. albicans biofilm formation was initiated immediately after the implant. […] Catheters were explanted from euthanized animals and the number of cells per individual biofilm was determined by CFU (Ricicova et al., [2010]). In vivo experiments were performed once (in total three animals/group).
The test system of series [10] is Candida dubliniensis biofilms. Put plainly: In vitro biofilm inhibition assay in microtiter plates (XTT quantification). Format: cell-based. Conditions: caspofungin alone, n = 3, read-out: BIC50 (CASPO) ± SEM.
The test system of series [11] is C. albicans caspofungin-resistant mutant M177 (fks1 mutant) biofilms. Conditions: fks1 mut.
Series [12] in a line: HsLin06_18 cytotoxicity assay (MTT). Format: cell-based. Conditions: human, 24 h treatment, relative to 1% DMSO control, read-out: EC50 (half maximal effective concentration), cytotoxicity. The procedure:
Drug cytotoxicity testing was performed as described previously (Vriens et al., [2015b]). Briefly, human hepatoma (HepG2) cells were treated for 24 h with caspofungin, HsLin06_18, its combination or control treatment (1% DMSO). Cell viability was determined by MTT staining (Roche Diagnostics, Germany) and expressed relative to the control treatment. All experiments were performed in quadruplicate with at least three biological repeats.

Series [13] has as its system Candida albicans biofilms. The note with it: Caspofungin + HsLin; microtiter plate; means for n ≥ 2.
The test system of another series is candidiasis. The note with it: administered systemically at 7 or 14 mg/kg/day; ref Tavares et al., 2008; cited from earlier work.
[14] abbreviates: read-out: BIC50 (echinocandin) ± SEM.

Like-named read-outs stand apart in the source and are kept apart here. Numbered stars: 1 amine (or outer) side, 2 acyl side, 3 side chain; on linkers, the order of the positions; unused ones are H or OH. Bridge positions count the residues as written; N and C are the ends. Square brackets hold non-standard residues; d marks the D form. Ends that are not written are not given here. Peptide text beside a SMILES is read from it. * marks the point of attachment. hTyr(3S-OH,4S-OH,3'-OSO3H) = N[C@H](C(=O)O)[C@H](O)[C@@H](O)c1ccc(O)c(OS(=O)(=O)O)c1; pTerphenylCO(4''-OnC5H11) = CCCCCOc1ccc(-c2ccc(-c3ccc(C(=O)*)cc3)cc2)cc1; Orn(4R-OH,5R-OH) = O=C([C@H](C[C@@H](O)[C@@H](O)N[*:3])N[*:1])[*:2]; hTyr(3S-OH,4S-OH) = N[C@H](C(=O)O)[C@H](O)[C@@H](O)c1ccc(O)cc1; Pro(3S-OH,4S-Me) = C[C@H]1CN[C@H](C(=O)O)[C@H]1O; X1 = CCCCCOc1ccc(-c2cc(-c3ccc(C(=O)*)cc3)no2)cc1; Gln(3R-OH) = NC(=O)C[C@@H](O)[C@H](N)C(=O)O; Hyp = O=C(O)[C@@H]1C[C@@H](O)CN1; Abu = CC[C@H](N)C(=O)O Bounds are passed on as bounds.

`CCCCCOc1ccc(-c2ccc(-c3ccc(C(=O)N[C@H]4C[C@@H](O)[C@@H](O)NC(=O)[C@@H]5[C@@H](O)[C@@H](C)CN5C(=O)[C@H]([C@@H](C)O)NC(=O)[C@H]([C@H](O)[C@@H](O)c5ccc(O)cc5)NC(=O)[C@@H]5C[C@@H](O)CN5C(=O)[C@H]([C@@H](C)O)NC4=O)cc3)cc2)cc1` [Anidulafungin] ({pTerphenylCO(4''-OnC5H11)}-[Orn(4R-OH,5R-OH)]T[Hyp][hTyr(3S-OH,4S-OH)]T[Pro(3S-OH,4S-Me)]; lactam 1-C): the IC50 in [1] (setting [14]) was 930 ± 120 nM.
Molecule `CC[C@H](C)C[C@H](C)CCCCCCCCC(=O)N[C@H]1C[C@@H](O)[C@@H](NCCN)NC(=O)[C@@H]2[C@@H](O)CCN2C(=O)[C@H]([C@H](O)CCN)NC(=O)[C@H]([C@H](O)[C@@H](O)c2ccc(O)cc2)NC(=O)[C@@H]2C[C@@H](O)CN2C(=O)[C@H]([C@@H](C)O)NC1=O` [Caspofungin] came in with a cell death in series [2] of 30%. Besides, the IC50 came out at 7400 ± 1360 nM in series [3]; 1000 ± 115 nM in series [4]; 700 ± 92 nM in series [6]; 1090 ± 12 nM in the series with Candida krusei biofilms; 830 ± 96 nM in [1] (read-out: BIC50 (CASPO) ± SEM); 960 ± 40 nM in [1] (setting [14]). Besides, the IC50 in [10] worked out at 920 ± 17 nM. Moreover, the “cells with permeabilized membranes” value in series [5] is recorded as less than 0.2%. Further, in series [7], the “population of cells with compromised membranes” value is listed as “not significantly increased after 40 min”. Besides, the “sub-lethal dose in the in vitro catheter setup” value in series [8] amounted to 0.4 µM. In addition, the “sub-lethal dose in the subcutaneous rat catheter model” value in [9] came out at 0.25 mg/kg/day.
Take `CC[C@H](NC(=O)[C@H](C)NC(=O)CNC(=O)CNC(=O)[C@H](Cc1ccc(O)cc1)NC(=O)[C@H](C)NC(=O)[C@@H](N)Cc1ccccc1)C(=O)N[C@@H](Cc1c[nH]cn1)C(=O)N[C@@H](Cc1ccc(O)cc1)C(=O)N[C@@H](CCC(N)=O)C(=O)N[C@@H](Cc1ccccc1)C(=O)N1CCC[C@H]1C(=O)N[C@@H](CO)C(=O)N[C@H](C(=O)N[C@@H](CCCCN)C(=O)N[C@@H](CC)C(=O)N[C@@H](Cc1ccccc1)C(=O)N[C@@H](CC)C(=O)N[C@@H](CCCCN)C(=O)O)C(C)C` [HsLin06_18] (H-FAYGGA[Abu]HYQFPSVK[Abu]F[Abu]K-OH): the FICI in series [11] (caspofungin + 2.5 µM HsLin06_18) and in [11] (caspofungin + 5 µM HsLin06_18) was less than 0.5 throughout. In addition, the EC50 at 24 h in series [12] is more than 50000 nM.
Regarding `CCCCCOc1ccc(-c2cc(-c3ccc(C(=O)N[C@H]4C[C@@H](O)[C@@H](O)NC(=O)[C@@H]5[C@@H](O)[C@@H](C)CN5C(=O)[C@H]([C@H](O)CC(N)=O)NC(=O)[C@H]([C@H](O)[C@@H](O)c5ccc(O)c(OS(=O)(=O)O)c5)NC(=O)[C@@H]5C[C@@H](O)CN5C(=O)[C@H]([C@@H](C)O)NC4=O)cc3)no2)cc1` [Micafungin] (X1-[Orn(4R-OH,5R-OH)]T[Hyp][hTyr(3S-OH,4S-OH,3'-OSO3H)][Gln(3R-OH)][Pro(3S-OH,4S-Me)]; lactam 1-C), the IC50 in series [1] (setting [14]) is 400 ± 88 nM.
In the case of “FAYGGACHYQFPSVKCFXK (disulfide) [HsLin06_18_22]”, the “Fold change (reduction of the BIC50 of caspofungin by co-incubation with HsLin06_18 or HsLin06_18-variants)” value in [13] worked out at 1.77.
Same read-out and setting: in the case of “FAYGGACHYQFPSVKXFCK (disulfide) [HsLin06_18_20]” it was 1.97.
Take “RsAFP2: plant defensin (QKLCQRPSGTWSGVCGNNNACKNQCIRLEKARHGSCNYVFPAHKCICYFPC; ends and bridges not checked; cysteine pairing not given here; UniProt P30230 30-80, looked up)”: the “in vivo efficacy against candidiasis” value in the series with candidiasis is “prophylactically effective”.
